Laboratory results as given in patent US20040053898A1, “Combination preparation with a erbeta selective estrogen and serm or antiestorgen” (priority 2000, published 2004).

Experiments:
[1] = test system: estrogen receptor preparations of rat prostates and rat uteri; assay: estrogen receptor binding, 3H-estradiol competition, rat prostate versus rat uterus cytosol; settings: rat prostate ER versus rat uterus ER
Method: The binding affinity of the new selective estrogens (ERβ-ligands) and SERMs was tested in competitive experiments with use of 3H-estradiol as a ligand in estrogen receptor preparations of rat prostates and rat uteri.

[2] = test system: human estrogen receptor α (ERα) / human estrogen receptor β (ERβ); assay: binding to human estrogen receptors α and β; settings: human ERα than human ERβ
[3] = test system: ERβ compared to ERα; settings: in-vitro receptor binding test; cited from earlier work

C[C@]12CC[C@@H]3c4ccc(O)cc4CC[C@H]3[C@@H]1C[C@@H](O)C2=O [16α-hydroxyestrone]
RBA value in rat prostate estrogen receptor relative to RBA value in rat uterus estrogen receptor (fold better) [1]: 5 ×
binding to human ERα relative to human ERβ (fold better) [2]: 3 ×

O=c1c(-c2ccc(O)cc2)coc2cc(O)cc(O)c12 [genisteine]
preference for ERβ compared to ERα [3]: ERβ-selectivity
